From patent US20030106085A1, “Disruption of the prostaglandin E synthase 2 gene” (Pfizer Inc., priority 2001, published 2003)

What was measured:
[1] = tested on: PGES2 KO clone #22F ES cell-derived macrophages; experiment: Rescue of wild type phenotype (cell density) in PGES2 KO ES cell-derived macrophages by PGE2 added to the media; type: cell-based, murine
Procedure: DBA-252 WT (+/+) and PGES KO (−/−) ES cell clones #22D, #22F and #70V were used to develop ES cell in vitro differentiated (IVD) macrophages. WT and KO PGES2 ES cell clones were maintained without PEF feeders in SCML. Two days prior to embryoid body (EB) formation, all ES cell lines were switched to l-SCML medium that contained a base medium of Iscove's MDM (ILTI, #31980-030) supplemented with 15% ES cell qualified fetal calf serum, 0.2 mM L-glutamine, 0.1 mM MEM non-essential amino acids, 1000 u/ml recombinant murine leukemia inhibitory factor, 50 μg/ml Gentamycin and 0.1 mM 2-Mercaptoethanol (Sigma #M-7522).
Embryoid body stage: The WT and KO ES cell clones were dissociated and grown in suspension culture in bacteriology 100 mm dishes in MacEB medium that contained the base medium Iscove's MDM supplemented with 15% ES cell qualified fetal calf serum, 2 mM L-glutamine, 300 μg transferrin (ILTI, #13008-016), 50 μg/ml L-ascorbic acid (Sigma Chemical, #A-4403), 5% PFHM-II (ILTI, #12040-093), 4×10^−4 M monothioglycerol (MTG), and 50 μg/ml Gentamycin. ES cells were grown in suspension for 6 days to form the EB cell aggregates.
Precursor macrophage stage: The EBs were dissociated on day 6 and plated in tissue culture dishes in Mac I medium that contained the base medium Iscove's MDM supplemented with 10% FBS (ILTI, #10439-024), 5% PFHM-II (ILTI, #12040-093), 2 mM L-glutamine, 3 ng/ml M-CSF (Sigma #M-9170), 1 ng/ml IL-3 (PeproTech, Inc., Rocky Hill, N.J., #213-13) and 50 μg/ml Gentamycin. When this cell population became confluent, the macrophage precursors developed as non-adherent clusters and could be harvested every other day from day 14 through day 30.
ES cell-derived macrophages: Non-adherent clusters of macrophage precursors were harvested from the media by centrifugation. Cell pellets were resuspended in Mac II media that contained the base medium Iscove's MDM supplemented with 10% FBS, 5% PFHM-II, 2 mM L-glutamine, 3 ng/ml M-CSF, and 50 μg/ml Gentamycin. […]

[2] = tested on: PGES2 KO and wild type mice; experiment: Acetic acid-induced writhing (acute inflammation/pain model); type: in vivo; details: 10 mg/kg orally, one hour before 0.7% acetic acid i.p., vs vehicle
Procedure: PGES2 KO mice were profiled in two experimental models of inflammation, collagen-induced arthritis (chronic inflammation model) and acetic acid-induced writhing (acute inflammation/pain model). All experiments were performed with age/sex-matched animals propagated on a DBA1/lacJ genetic background. This genetic background is optimal for collagen-induced arthritis (CIA). The phenotype in CIA was further profiled by characterizing the immune responses of PGES2 KO and wild type animals by assessing antibody production and delayed-type hypersensitivity reactions. In summary, results of the CIA and acetic acid-induced writhing models indicate a role for PGES2 in PGE2-mediated chronic inflammation, acute inflammation, and acute inflammatory pain detection as opposed to neuropathic pain detection. Mice were randomized and dosed orally with either vehicle (0.5% (w/w) methylcellulose, Sigma Chemical, #M0512) or 10 mg/kg piroxicam (Sigma Chemical, #P5654). One hour later, 16 μl/g body weight of 0.7% acetic acid was administered intraperitoneally. The mice were placed in a 5-compartment box and the number of stretches was counted for 20 minutes following acetic acid injection.

## CCCCC[C@H](O)/C=C/[C@H]1[C@H](O)CC(=O)[C@@H]1C/C=C\CCCC(=O)O [PGE2, Prostaglandin E2]
[1]; PGES2 KO clone 22F macrophages cultured in 10.0 μM PGE2, added at all stages of differentiation
  macrophage density: approximately 75 % of wild type
[1]; PGES2 KO clone #22F macrophages cultured in 0.1 μM PGE2, added at all stages of differentiation
  macrophage density compared to wild type: equivalent in density to wild type
[1]; PGES2 KO clone #22F macrophages cultured in 1.0 μM PGE2, added at all stages of differentiation
  macrophage density compared to wild type: equivalent in density to wild type

## CN1C(C(=O)Nc2ccccn2)=C(O)c2ccccc2S1(=O)=O [piroxicam]
[2]; PGES2 KO mice
  pain response (number of stretches counted for 20 minutes following acetic acid injection): had no effect
[2]; wild type mice
  pain response (number of stretches counted for 20 minutes following acetic acid injection): reduced the response
